Data as given in PMC3963473, “Structure–Activity Relationship Studies of Pyrrolone Antimalarial Agents” (Chemmedchem, 2013).
In brackets after ≈: the same amount, converted by molar mass. Where two headings read alike, the source gives them in different places.

Columns and labels:
Plasmodium falciparum K1 = test: microbe, parasite or virus in culture; format: cell-based; conditions: for EC50: Plasmodium falciparum, K1, read-out: EC50 P. falc.; for decrease in EC50 value relative to the unsubstituted analogue 56 / drop / loss in activity (fold): P. falciparum K1; for decrease in EC50 value relative to the unsubstituted analogue 56: relative to 56; for drop / loss in activity (fold): C-ring variants, comparator not stated explicitly
Description: (§1) V. Design and Results of the in vitro & in vivo Studies.
A. Drug inhibition of in vitro cultured P. falciparum parasite:2 All in vitro assays were carried out twice independently. In vitro activity against the erythrocytic stages of P. falciparum was determined by using a 3H-hypoxanthine incorporation assay,5-6 using the […]
were dissolved in DMSO at 10 mg/mL and added to parasite cultures incubated in RPMI […]
haematocrit (0.3% parasitaemia). Serial doubling dilutions of each drug were prepared in […]
After 48 h, 50 µL of 3H-hypoxanthine (= 0.5 µCi) was added to each well of the plate. The plates were incubated for an additional 24 h under the same conditions. The plates were then harvested with a Betaplate cell harvester (Wallac, Zurich, Switzerland), and the red blood cells were transferred onto a glass fiber filter and then washed with distilled water. The dried filters were inserted into a plastic foil with 10 mL of scintillation fluid and were counted in a Betaplate™ liquid scintillation counter (Wallac, Zurich, […]

L6 cells = test: In vitro cytotoxicity assay in L6 cells (Alamar Blue); format: cell-based; conditions: Rattus norvegicus
Description: as §1
A. Drug inhibition of in vitro cultured P. falciparum parasite:2 All in vitro assays were carried out twice independently. In vitro activity against the erythrocytic stages of P. […]
B. In vitro cytotoxicity assay:2 Assays were performed in 96-well microtiter plates, each […]
mM) and 10% fetal bovine serum, and 4 x 10^4 L-6 cells (a primary cell line derived from rat skeletal myoblasts). Serial drug dilutions of seven 3-fold dilution steps covering a range […]
After 72 h of incubation the plates were inspected […]
of Alamar Blue was then added to each well and the plates incubated for another 2 h.
Then the plates were read with a Spectramax Gemini XS microplate fluorometer (Molecular Devices Cooperation, Sunnyvale, CA, USA) using an excitation wave length of […]
Data were analysed using the microplate reader software Softmax Pro (Molecular Devices Cooperation, Sunnyvale, CA, USA).

[1] = Aqueous solubility estimated by nephelometry; format: physicochemical; conditions: kinetic from dmso stock
Description: III. Physicochemical Evaluation […]
Solubility Estimation: Aqueous solubility was estimated by nephelometry.
Compound in DMSO was spiked into either water, pH 6.5 phosphate buffer or 0.01N HCl
(approx. pH 2.0) with the final DMSO concentration being 1%. Samples were then
analyzed by Nephelometry to determine the solubility range as described previously.1

[2] = Table 1, A-ring variants, mammalian L6 cells, mean of two independent assays, read-out: EC50 L6 cells
[3] = aqueous buffer, pH 6.5 phosphate buffer, nephelometry, 1% DMSO, read-out: Solubility pH 6.5
[4] = simulated gastric fluid, pH 2.0 (0.01N HCl), nephelometry, 1% DMSO, read-out: Solubility pH 2.0
[5] = Table 2, C-ring variants, L6 cells, mean of two independent assays, read-out: EC50 L6 cells
[6] = Table 2, water, read-out: Solubility water
[7] = Table 1, water, nephelometry, 1% DMSO, read-out: Solubility water

SMILES | EC50 (Plasmodium falciparum K1) | EC50 (L6 cells; [2]) | melting point | further results
CCOC(=O)C1=C(C)N/C(=C/c2cc(C)n(C3CCN(CC)CC3)c2C)C1=O [Compound 20] | 2.4 µM | 7.6 µM | 140 to 145 °C | solubility [1, 3]: > 250 µM; solubility [1, 4]: > 250 µM
CCOC(=O)C1=C(C)N/C(=C/c2cc(C)n(C3CCN(C)CC3)c2C)C1=O [Compound 19] | 1.4 µM | 7.8 µM | 130 to 135 °C | –
CCOC(=O)C1=C(/C=C/N(C)C)N/C(=C/c2cc(C)n(-c3ccccc3C(F)(F)F)c2C)C1=O [Compound 55, (E)-Ethyl 5-((2,5-dimethyl-1-(2-(trifluoromethyl)phenyl)-1H-pyrrol-3-yl)methylene)-2-((E)-2-(dimethylamino)vinyl)-4-oxo-4,5-dihydro-1H-pyrrole-3-carboxylate] | 0.061 µM | – | – | EC50 (L6 cells; [5]): 56 µM; solubility [1, 6]: > 125 µM
CCOC(=O)C1=C(C)N/C(=C/c2cc(C)n(C3CCN(CCc4ccccc4)CC3)c2C)C1=O [Compound 31] | 0.32 µM | 107 µM | – | –
Cc1cc(/C=C2/Nc3ccn(Cc4ccc(C(F)(F)F)cc4)c(=O)c3C2=O)c(C)n1-c1ccccc1C(F)(F)F [Compound 63] | 0.046 µM | – | 235 to 240 °C | EC50 (L6 cells; [5]): 54 µM; solubility [1, 6]: 89 µM (≈ 49.6 µg/mL)
CCOC(=O)C1=C(C)N/C(=C/c2cc(C)n(C3CCN(Cc4ccc(N5CCOCC5)cc4)CC3)c2C)C1=O [Compound 54] | 2.6 µM | 53 µM | > 280 °C | –
CCOC(=O)C1=C(C)N/C(=C/c2cc(C)n(C3CCN(Cc4cc(C)on4)CC3)c2C)C1=O [Compound 47] | 0.1 µM | 42 µM | 185 to 188 °C | –
Cc1cc(/C=C2/Nc3ccn(CCN4CCOCC4)c(=O)c3C2=O)c(C)n1-c1ccccc1C(F)(F)F [Compound 60] | 0.23 µM | – | 180 to 185 °C | decrease in EC50 value relative to the unsubstituted analogue 56 (Plasmodium falciparum K1): fivefold; EC50 (L6 cells; [5]): 65 µM
CCOC(=O)C1=C(C)N/C(=C/c2cc(C)n(C3CCN(Cc4ccc(-c5noc(C)n5)cc4)CC3)c2C)C1=O [Compound 51] | 0.001 µM | 11 µM | 195 to 200 °C | solubility [1, 7]: > 125 µM
CCOC(=O)C1=C(C)N/C(=C/c2cc(C)n(C3CCN(CCc4ccc(C(F)(F)F)cc4)CC3)c2C)C1=O [Compound 33] | 0.13 µM | 19 µM | – | –
COc1cc([C@@H]2c3cc4c(cc3[C@H](O)[C@H]3COC(=O)[C@H]23)OCO4)cc(OC)c1OC [podophyllotoxin, reference compound] | – | – | – | EC50 (L6 cells; L6, read-out: EC50 L6 cells): 0.009 to 0.022 µM
CCOC(=O)C1=C(C)N/C(=C/c2cc(C)n(C3CCN(c4ccc(C(F)(F)F)cc4)CC3)c2C)C1=O [Compound 30] | 0.024 µM | 10 µM | 153 to 158 °C | solubility [1, 7]: > 125 µM
CCOC(=O)C1=C(C)N/C(=C/c2cc(C)n(C3CCN(Cc4ccn(C)n4)CC3)c2C)C1=O [Compound 45] | 0.15 µM | 36 µM | 180 to 184 °C | –
CCOC(=O)C1=C(C)N/C(=C/c2cc(C)n(C3CCN(CCC(C)C)CC3)c2C)C1=O [Compound 21] | 0.19 µM | 22 µM | 158 to 162 °C | –
CCOC(=O)C1=C(C)N/C(=C/c2cc(C)n(C3CCN(CC4CC4)CC3)c2C)C1=O [Compound 39] | 3.5 µM | 14 µM | 142 to 146 °C | –
Cc1cc(/C=C2/Nc3ccn(CCN(C)C)c(=O)c3C2=O)c(C)n1-c1ccccc1C(F)(F)F [Compound 61] | 0.25 µM | – | 125 to 128 °C | decrease in EC50 value relative to the unsubstituted analogue 56 (Plasmodium falciparum K1): fivefold; EC50 (L6 cells; [5]): 35 µM
CCOC(=O)C1=C(C)N/C(=C/c2cc(C)n(C3CCN(Cc4ncc[nH]4)CC3)c2C)C1=O [Compound 46] | 1.2 µM | 28 µM | 185 to 190 °C | –
CCOC(=O)C1=C(C)N/C(=C/c2cc(C)n(C3CCN(Cc4cccn4C)CC3)c2C)C1=O [Compound 50] | 0.012 µM | 3 µM | 190 to 194 °C | –
CCOC(=O)C1=C(C)N/C(=C/c2cc(C)n(C3CCNCC3)c2C)C1=O [Compound 18] | 12 µM | > 250 µM | > 250 °C | –

SMILES | EC50 (Plasmodium falciparum K1) | EC50 (L6 cells; [2]) | melting point | further results
CCCN1CCC(n2c(C)cc(/C=C3/NC(C)=C(C(=O)OCC)C3=O)c2C)CC1 [Compound 22] | 1.1 µM | 6.6 µM | 145 to 148 °C | –
CCOC(=O)C1=C(C)N/C(=C/c2cc(C)n(C3CCN(Cc4ccc(N5CCOCC5)nc4)CC3)c2C)C1=O [Compound 52] | 1.5 µM | 50 µM | > 280 °C | –
CCOC(=O)C1=C(C)N/C(=C/c2cc(C)n(C3CCN(Cc4ccc(F)cc4)CC3)c2C)C1=O [Compound 26] | 0.024 µM | 51 µM | – | solubility [1, 7]: > 125 µM
CCOC(=O)C1=C(C)N/C(=C/c2cc(C)n(C3CCN(CCN4CCCCC4)CC3)c2C)C1=O [Compound 38] | 2.4 µM | 97 µM | 122 to 125 °C | –
CCOC(=O)C1=C(C)N/C(=C/c2cc(C)n(C3CCN(Cc4ccc(C(F)(F)F)cc4)CC3)c2C)C1=O [Compound 28] | 0.002 µM | 5 µM | – | solubility [1, 3]: 6 to 12 µM (≈ 3.09 to 6.19 µg/mL); solubility [1, 7]: > 125 µM; solubility [1, 4]: 48 to 97 µM (≈ 24.7 to 50 µg/mL)
CCOC(=O)C1=C(C)N/C(=C/c2cc(C)n(C3CCN(C(C)c4ccc(C(F)(F)F)cc4)CC3)c2C)C1=O (stereo not drawn) [Compound 35] | 0.007 µM | 4.26 µM | – | –
CCOC(=O)C1=C(C)N/C(=C/c2cc(C)n(C3CCN(CC4CCOCC4)CC3)c2C)C1=O [Compound 41] | 0.11 µM | 43 µM | 180 to 183 °C | –
CCOC(=O)C1=C(C)N/C(=C/c2cc(C)n(C3CCN(CCc4ccc(OC)cc4)CC3)c2C)C1=O [Compound 32] | 0.083 µM | 72 µM | – | solubility [1, 3]: 25 to 51 µM (≈ 12.3 to 25.1 µg/mL); solubility [1, 4]: 100 to 200 µM (≈ 49.2 to 98.3 µg/mL)
CCOC(=O)C1=C(C)N/C(=C/c2cc(C)n(C3CCN(CCc4ccc(F)cc4)CC3)c2C)C1=O [Compound 34] | 0.096 µM | 22 µM | – | solubility [1, 3]: 13 to 26 µM (≈ 6.23 to 12.5 µg/mL); solubility [1, 4]: 52 to 100 µM (≈ 24.9 to 48 µg/mL)
CCCn1ccc2c(c1=O)C(=O)/C(=C\c1cc(C)n(-c3ccccc3C(F)(F)F)c1C)N2 [Compound 59] | 0.15 µM | – | 180 to 185 °C | drop / loss in activity (fold) (Plasmodium falciparum K1): tenfold; EC50 (L6 cells; [5]): 34 µM
CCOC(=O)C1=C(C)N/C(=C/c2cc(C)n(C3CCN(Cc4cnc(N5CCOCC5)nc4)CC3)c2C)C1=O [Compound 53] | 0.075 µM | 28 µM | 194 to 199 °C | –
CCOC(=O)C1=C(C)N/C(=C/c2cc(C)n(C3CCN(Cc4nccn4C)CC3)c2C)C1=O [Compound 49] | 1 µM | 16 µM | 186 to 189 °C | –
CCOC(=O)C1=C(C)N/C(=C/c2cc(C)n(C3CCN(Cc4ccccc4C(F)(F)F)CC3)c2C)C1=O [Compound 29] | 0.0005 µM | 1.7 µM | – | EC50 (P. falciparum K1) (Plasmodium falciparum K1; values in nM): sub-nanomolar; solubility [1, 7]: > 125 µM
Cc1cc(/C=C2/Nc3ccn(Cc4ccccc4)c(=O)c3C2=O)c(C)n1-c1ccccc1C(F)(F)F [Compound 62, (E)-5-Benzyl-2-((2,5-dimethyl-1-(2-(trifluoromethyl)phenyl)-1H-pyrrol-3-yl)methylene)-1H-pyrrolo[3,2-c]pyridine-3,4(2H, 5H)dione] | 0.23 µM | – | 195 to 200 °C | drop / loss in activity (fold) (Plasmodium falciparum K1): fivefold; EC50 (L6 cells; [5]): 43 µM
CCOC(=O)C1=C(C)N/C(=C/c2cc(C)n(C3CCN(CC(C)(C)C)CC3)c2C)C1=O [Compound 23] | 0.058 µM | 88 µM | 139 to 142 °C | –
CCOC(=O)C1=C(C)N/C(=C/c2cc(C)n(C3CCN(Cc4ccc(F)cc4F)CC3)c2C)C1=O [Compound 27] | 0.023 µM | 23 µM | – | solubility [1, 7]: > 125 µM
CCOC(=O)C1=C(C)N/C(=C/c2cc(C)n(C3CCN(CC4CCN(C)CC4)CC3)c2C)C1=O [Compound 42] | 1.4 µM | 81 µM | 230 to 235 °C | –
CCOC(=O)C1=C(C)N/C(=C/c2cc(C)n(C3CCN(CCN4CCOCC4)CC3)c2C)C1=O [Compound 37] | 5.3 µM | 89 µM | 115 to 118 °C | –
